From patent US20250376689A1, “OLIGONUCLEOTIDES HAVING 6-THIO-2'-DEOXYGUANOSINE RESIDUES AND USES THEREOF” (City of Hope, priority 2021, published 2025)

Tests used:
[1] = test system: telomerase-negative normal cells; conditions: cited from earlier work
[2] = test system: activated T cells; assay: Viability of CD3/CD28-activated human T cells (flow cytometry); format: cell-based; conditions: human T cells activated with CD3/CD28 beads and IL-2
Procedure: (§1) PMBCs from 3 healthy donors were seeded at a density of 10^7/mL and treated with CpG alone, 6tdG alone, combination of CpG and 6tdG, CpG(6tdG)6-p, CpG(6tdG)5G for 2 days. Cell apoptosis was measured using flow cytometry after staining for Annexin V and 7AAD. Representative results obtained from 3 independent experiments; means±SEM (n=3). (FIG. 4B) Human T cells isolated from 3 healthy donor PBMCs using negative selection were activated with CD3/CD28 beads in the presence of 20 ng/mL human IL-2 to induce proliferation. After activation, T cells were incubated in the presence of CpG alone, 6tdG alone, combination of CpG and 6tdG, CpG(6tdG)6-p or CpG(6tdG)5G for the indicated times before subject to viability analysis in flow cytometry. (FIG. 4C) Activated and proliferating T cells, but not naïve/resting T cells, have high levels of telomerase activity. The telomerase activity was assayed using TRAPeze kit (EMD Millipore), a telomerase repeated amplification protocol, and PCR products were qualitatively analyzed in a PAGE gel.

[3] = test system: resting human lymphocytes; assay: Apoptosis/viability of resting human PBMCs (Annexin V/7AAD flow cytometry); format: cell-based; conditions: PBMCs from 3 healthy donors, treated 2 days
Procedure: as §1

[4] = test system: TBK1 signaling downstream from STING; assay: Western blot of activated and total TBK1 in DCs co-cultured with pretreated RM9 cells; format: cell-based, mouse
Procedure: FIG. 8A: RM9 prostate cancer cells were treated with a combination of 5 μM 6tdG and 1 μM CpG, 1 μM CpG(6tdG)6-p or PBS overnight, washed and incubated for the additional 3 days in fresh media. The dying cancer cells were then harvested and co-cultured for 18 h with freshly isolated, mouse primary splenic DC at a ratio of 1:10. The percentages of activated DCs (CD11c+MHC II+/CD80+ or CD86+) were analyzed by flow cytometry. FIG. 8B: Bone-marrow derived dendritic cells (BMDCs) were co-cultured with cancer cells in the presence of CpG alone, 6tdG alone, combination of CpG and 6tdG, or CpG(6tdG)6-p for 3 days. The expression of IFN-β mRNA was analyzed by real-time qPCR. Shown are results from three independent experiments; means±SEM (n=3); ****P<0.0001; *P<0.05 compared to the untreated group. FIG. 8C: TBK1 signaling downstream from STING is activated in primary mouse DCs co-cultured with RM9 cells pretreated using 6tdG alone, in combination with CpG or by CpG-(6tdG)6-p oligomer. The protein content of dendritic cells was analyzed using western blot to evaluate levels of activated and total TBK1. The protein levels were normalized to beta-actin and quantified densitometrically.

Nc1nc2c(ncn2[C@H]2C[C@H](O)[C@@H](CO)O2)c(=S)[nH]1 [6tdG, 6-thio-2′-deoxyguanosine]
cytotoxic effects on telomerase-negative normal cells [1]: minimal cytotoxic effects | cytotoxicity to activated T cells [2]: cytotoxic to activated T cells | viability of resting human lymphocytes [3]: Neither 6tdG nor CpG-6tdG oligomers affect viability | TBK1 signaling in primary mouse DCs [4]: activated
